Results on three molecules are retold here after PMC5556379 (Journal of medicinal chemistry, 2017).

One experiment addresses T1, hiCE (Homo sapiens, UniProt O00748).
T1 sequence (O00748 27-559): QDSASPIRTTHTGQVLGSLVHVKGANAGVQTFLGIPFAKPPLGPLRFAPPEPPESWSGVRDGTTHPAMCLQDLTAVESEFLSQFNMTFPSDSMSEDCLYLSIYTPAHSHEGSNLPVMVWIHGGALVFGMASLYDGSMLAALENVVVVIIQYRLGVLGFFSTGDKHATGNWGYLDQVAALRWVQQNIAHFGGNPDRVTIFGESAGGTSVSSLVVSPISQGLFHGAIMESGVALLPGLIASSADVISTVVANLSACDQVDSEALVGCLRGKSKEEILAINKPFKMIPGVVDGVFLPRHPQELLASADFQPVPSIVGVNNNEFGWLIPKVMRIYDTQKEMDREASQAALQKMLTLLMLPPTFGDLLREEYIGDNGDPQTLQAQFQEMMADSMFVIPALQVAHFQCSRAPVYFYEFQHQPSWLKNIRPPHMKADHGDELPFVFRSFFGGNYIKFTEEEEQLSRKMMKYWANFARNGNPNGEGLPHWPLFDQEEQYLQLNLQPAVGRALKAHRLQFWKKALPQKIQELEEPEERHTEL
The class given is cell-based. Particulars: U373MG cells expressing hiCE; irinotecan as substrate.

The target in a further experiment is T2, hCE1 (Homo sapiens, UniProt P23141).
T2 sequence (P23141 18-567): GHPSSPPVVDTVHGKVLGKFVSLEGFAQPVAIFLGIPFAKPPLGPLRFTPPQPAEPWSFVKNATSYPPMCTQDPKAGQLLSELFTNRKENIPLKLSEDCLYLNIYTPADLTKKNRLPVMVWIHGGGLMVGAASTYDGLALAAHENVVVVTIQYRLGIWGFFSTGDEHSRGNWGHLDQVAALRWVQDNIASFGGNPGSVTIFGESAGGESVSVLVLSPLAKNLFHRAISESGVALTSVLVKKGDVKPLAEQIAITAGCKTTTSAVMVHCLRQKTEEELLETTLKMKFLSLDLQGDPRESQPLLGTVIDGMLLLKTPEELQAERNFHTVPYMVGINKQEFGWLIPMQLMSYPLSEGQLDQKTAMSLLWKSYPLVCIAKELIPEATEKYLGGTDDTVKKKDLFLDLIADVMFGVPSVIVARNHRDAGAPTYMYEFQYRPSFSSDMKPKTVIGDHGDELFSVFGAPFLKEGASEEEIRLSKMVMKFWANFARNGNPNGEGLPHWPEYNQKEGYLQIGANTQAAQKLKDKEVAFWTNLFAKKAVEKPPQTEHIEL
Particulars: read-out: Ki with hCE1; cited from earlier work.

One may read the Ki as the dissociation constant of the complex between target and ligand, obtained from inhibition or displacement.

Each structure is given as a SMILES string.

In the case of `COc1ccc(N(C)C2=CC(=O)C(=O)c3ccccc32)cc1` [Compound 17, 4-((4-Methoxyphenyl)(methyl)amino)naphthalene-1,2-dione], the “inhibition of hiCE in cells (loss in 7-ethyl-10-hydroxycamptothecin production)” value on hiCE is on record as “less than 23%”.
Same read-out and setting: the result for `Cc1ccc(N(C)C2=CC(=O)C(=O)c3ccccc32)cc1` [Compound 18, 4-((4-Methylphenyl)(methyl)amino)naphthalene-1,2-dione] reads “less than 23%”.
In the case of `Cc1cccc2c3c(ccc12)C1=C(C(=O)C3=O)[C@@H](C)CO1` [dihydrotanshinone], the Ki on hCE1 was 0.398 µM.
